Tests used:
[1] = molecular target: T1, PTGR2 (Homo sapiens, UniProt Q8N8N7); assay: PTGR2 enzymatic (15-keto-PGE2 substrate) assay after live-cell treatment; type: biochemical; details: cells treated 2 h 37° C., up to 25 μM; 15-keto-PGE2 20 μM
T1 construct: host or cells: HEK293T
Experimental: PTGR2 enzymatic assay was performed based on a previously described chromogenic method^[17,81]. HEK293T cells expressing recombinant PTGR2 were treated with DMSO vehicle or indicated concentrations of SuTEx ligand for 2 hrs. The cells were washed with cold PBS twice and harvested. The proteomes were lysed in PBS by sonication and fractionated (100,000×g, 45 min, 4° C.). Soluble proteome (0.5 mg) was incubated for 30 min at 37° C. with 1 mM of EDTA, DTT, NADPH and 20 μM 15-Keto PGE2 in 0.1 M Tris-HCl (PH 7.5) (final volume of 230 μL) and the substrate consumed was determined by adding 20 μL 20 N NaOH, mixing and measuring absorbance at 500 nm after 5 min.
The effect of liganding tyrosine sites on the biochemical function of PTGR2 was investigated. PTGR2 has a role in metabolism and there is an ability to measure its biochemical activity using an established 15-keto-PGE2 substrate assay^[17-18]. In brief, recombinant PTGR2 expressing HEK293T cells were treated with DMSO, HHS-0701, or HHS-0101 (negative control) for 2 hours at 37° C. Cells were lysed and the soluble fractions incubated in an assay buffer containing 15-keto-PGE2 (20 μM) for 30 minutes at 37° C. After quenching reactions in NaOH, the amount of substrate remaining was quantified by absorbance of a red chromophore that forms in an alkaline solution of 15-keto-PGE2^[17-18]. […]

[2] = molecular target: T2, Q96AE4 (Homo sapiens, UniProt Q96AE4); assay: SILAC LC-MS ABPP; type: cell-based; details: 25 μM 2 h, live DM93 cells
T2 construct: endogenous in cells; host or cells: DM93 cells (SILAC), treated live; soluble proteome analysed
Experimental: (§1) Cells were grown to 90-95% confluence before being washed once with warm, sterile DPBS (1×, 5 mL), followed by addition of 10 mL of serum-free media (supplemented with 1% L-glutamine) containing either DMSO or SuTEx fragment (in DMSO) was added. Light cells were treated with DMSO vehicle while the heavy cells were treated with DMSO or SuTEx fragment (in DMSO) and incubated for 2 hrs. After 2 hrs, the cells were treated with SuTEx alkyne probe (HHS475, 10 μL of 1000× DMSO stock) and incubated for an additional 2 hrs. The media was aspirated and cells washed with cold PBS (5 mL) and harvested. Cells were spun at 500×g for 5 min at 4° C. followed by removal of supernatant. Pellets were resuspended in 1 mL of cold DPBS and spun at 1,400×g for 3 min at 4° C. followed by removal of supernatant. The cells were lysed in PBS by sonication and fractionated (100,000×g, 45 min, 4° C.).The light and heavy soluble fractions were diluted to 2.3 mg/mL in PBS and 432 μL were used for analysis (1 mg total protein). The probe-modified proteomes were conjugated to desthiobiotin-PEG3-azide (10 μl of 10 mM stock in DMSO; 200 μM final concentration) using TCEP (10 μl of fresh 50 mM stock in water, 1 mM final concentration), TBTA ligand (33 μl of a 1.7 mM 4:1 t-butanol/DMSO stock, 100 μM final concentration) and CuSO4 (10 μl of 50 mM stock, 1 mM final concentration). Samples were vortexed to mix and incubated for 1 hr at room temperature. The heavy and light proteomes were mixed 1:1 and the subsequent steps, including LC-MS/MS data analysis, were performed as previously described^[8a].
(§2) Coupling cell-based screens with chemical proteomics can facilitate the identification of target protein and binding sites that engage and are irreversibly modified by covalent ligands^[12]. In these assays, covalent ligands block SuTEx activity-based probe (ABP) labeling at protein sites, and the competition of probe labeling can be used to quantify potency and selectivity across the proteome^[10a]. To facilitate quantitative chemical proteomics, DM93 melanoma cells were cultured using stable isotopic labeling by amino acids in cell culture (SILAC)^[13]. Cells cultured in “light” media were treated with dimethyl sulfoxide (DMSO) vehicle while cells cultured in “heavy” media were treated with SuTEx ligand (25 μM, 2 hours, 37° C.). Next, cells were treated with HHS-475 probe (100 μM, 2 hours, 37° C.) followed by lysis and processing of proteomes for analysis. Probe-modified proteins from the soluble fraction were conjugated to a desthiobiotin-azide tag by copper-catalyzed azide-alkyne cycloaddition (CuAAC)^[14] followed by mixing of the light and heavy proteomes. The combined proteomes were digested with trypsin protease to produce probe-modified peptides, followed by enrichment and purification by avidin affinity chromatography. Probe-modified peptides were resolved, identified, and quantified by high-resolution liquid chromatography-tandem mass spectrometry (LC-MS/MS). Resultant data were analyzed as previously described^[8a, 10a]. Table 2, below, lists sites of modification targeted by sulfonyl-triazole compounds HHS-0101, HHS-0201, HHS-0301, HHS-0401, and HHS-0701. The format of the table is as follows: protein Uniprot accession number (see uniprot.org); tyrosine site (amino acid position) modified; treatment (sulfonyl-triazole compound identification number, followed by Y (where if multiple compounds modify the same site, the compounds are separated by vertical lines).

[3] = molecular target: T3, Q04637 (Homo sapiens, UniProt Q04637); assay: SILAC LC-MS ABPP; type: cell-based; details: 25 μM 2 h, live DM93 cells
T3 construct: performing SuTEx compound screening directly in cells; endogenous in cells; host or cells: DM93 cells (SILAC)
Experimental: as §1, §2

[4] = test system: P22626; assay: SILAC LC-MS ABPP; type: cell-based, human; details: 25 μM 2 h, live DM93 cells
Experimental: as §1, §2

[5] = molecular target: T4, O75150 (Homo sapiens, UniProt O75150); assay: SILAC LC-MS ABPP; type: cell-based; details: 25 μM 2 h, live DM93 cells
T4 construct: endogenous in cells; host or cells: DM93
Experimental: as §1, §2

[6] = molecular target: T5, P16930 (fumarylacetoacetase, FAH) (Homo sapiens, UniProt P16930); assay: SILAC LC-MS ABPP; type: cell-based
T5 construct: endogenous in cells; host or cells: DM93 (SILAC)
Experimental: Cells were grown to 90-95% confluence before being washed once with warm, sterile DPBS (1×, 5 mL), followed by addition of 10 mL of serum-free media (supplemented with 1% L-glutamine) containing either DMSO or SuTEx fragment (in DMSO) was added. Light cells were treated with DMSO vehicle while the heavy cells were treated with DMSO or SuTEx fragment (in DMSO) and incubated for 2 hrs. After 2 hrs, the cells were treated with SuTEx alkyne probe (HHS475, 10 μL of 1000× DMSO stock) and incubated for an additional 2 hrs. The media was aspirated and cells washed with cold PBS (5 mL) and harvested. Cells were spun at 500×g for 5 min at 4° C. followed by removal of supernatant. […]
Coupling cell-based screens with chemical proteomics can facilitate the identification of target protein and binding sites that engage and are irreversibly modified by covalent ligands^[12]. In these assays, covalent ligands block SuTEx activity-based probe (ABP) labeling at protein sites, and the competition of probe labeling can be used to quantify potency and selectivity across the proteome^[10a]. To facilitate quantitative chemical proteomics, DM93 melanoma cells were cultured using stable isotopic labeling by amino acids in cell culture (SILAC)^[13]. […] Probe-modified peptides were resolved, identified, and quantified by high-resolution liquid chromatography-tandem mass spectrometry (LC-MS/MS). […]

T3 sequence (Q04637 whole entry): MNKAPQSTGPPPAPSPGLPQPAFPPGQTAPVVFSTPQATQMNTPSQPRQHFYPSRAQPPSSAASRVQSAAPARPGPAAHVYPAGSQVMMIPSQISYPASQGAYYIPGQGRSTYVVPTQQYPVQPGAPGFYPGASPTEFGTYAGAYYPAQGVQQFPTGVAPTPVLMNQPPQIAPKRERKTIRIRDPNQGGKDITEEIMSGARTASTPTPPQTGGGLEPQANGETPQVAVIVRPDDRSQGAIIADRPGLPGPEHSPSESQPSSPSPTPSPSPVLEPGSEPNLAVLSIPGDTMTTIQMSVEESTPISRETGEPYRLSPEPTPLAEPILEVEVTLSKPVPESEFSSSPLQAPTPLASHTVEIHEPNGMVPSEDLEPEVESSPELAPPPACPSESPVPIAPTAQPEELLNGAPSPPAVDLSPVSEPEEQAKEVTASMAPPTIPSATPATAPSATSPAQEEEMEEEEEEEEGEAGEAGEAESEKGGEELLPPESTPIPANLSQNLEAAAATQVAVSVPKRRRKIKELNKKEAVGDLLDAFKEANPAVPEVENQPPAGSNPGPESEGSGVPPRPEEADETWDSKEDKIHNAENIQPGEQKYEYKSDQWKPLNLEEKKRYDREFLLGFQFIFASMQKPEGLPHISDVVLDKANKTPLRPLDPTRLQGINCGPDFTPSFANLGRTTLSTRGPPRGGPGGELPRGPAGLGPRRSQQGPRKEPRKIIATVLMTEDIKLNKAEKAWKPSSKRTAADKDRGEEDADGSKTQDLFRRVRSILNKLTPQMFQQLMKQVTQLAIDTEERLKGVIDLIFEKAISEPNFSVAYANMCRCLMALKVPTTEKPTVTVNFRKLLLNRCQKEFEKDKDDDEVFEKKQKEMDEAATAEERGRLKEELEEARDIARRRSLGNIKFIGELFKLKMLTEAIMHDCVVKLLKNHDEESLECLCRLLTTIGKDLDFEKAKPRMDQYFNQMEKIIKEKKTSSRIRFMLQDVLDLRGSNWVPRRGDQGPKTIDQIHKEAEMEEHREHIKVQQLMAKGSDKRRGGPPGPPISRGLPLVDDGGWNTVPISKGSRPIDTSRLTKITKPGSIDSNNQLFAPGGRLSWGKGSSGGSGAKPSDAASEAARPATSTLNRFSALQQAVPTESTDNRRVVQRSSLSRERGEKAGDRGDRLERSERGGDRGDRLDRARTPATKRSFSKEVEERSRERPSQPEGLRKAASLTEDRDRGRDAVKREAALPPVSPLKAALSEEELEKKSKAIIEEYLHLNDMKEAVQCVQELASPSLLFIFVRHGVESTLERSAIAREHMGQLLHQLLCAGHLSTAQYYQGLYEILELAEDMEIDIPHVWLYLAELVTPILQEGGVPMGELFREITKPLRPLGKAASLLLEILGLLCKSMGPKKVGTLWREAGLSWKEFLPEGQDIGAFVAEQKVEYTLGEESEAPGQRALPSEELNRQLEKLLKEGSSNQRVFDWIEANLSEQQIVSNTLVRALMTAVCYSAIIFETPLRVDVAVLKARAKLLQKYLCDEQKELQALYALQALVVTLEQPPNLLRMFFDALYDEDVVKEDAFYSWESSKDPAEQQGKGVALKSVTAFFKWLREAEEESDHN
T1 sequence (Q8N8N7 whole entry): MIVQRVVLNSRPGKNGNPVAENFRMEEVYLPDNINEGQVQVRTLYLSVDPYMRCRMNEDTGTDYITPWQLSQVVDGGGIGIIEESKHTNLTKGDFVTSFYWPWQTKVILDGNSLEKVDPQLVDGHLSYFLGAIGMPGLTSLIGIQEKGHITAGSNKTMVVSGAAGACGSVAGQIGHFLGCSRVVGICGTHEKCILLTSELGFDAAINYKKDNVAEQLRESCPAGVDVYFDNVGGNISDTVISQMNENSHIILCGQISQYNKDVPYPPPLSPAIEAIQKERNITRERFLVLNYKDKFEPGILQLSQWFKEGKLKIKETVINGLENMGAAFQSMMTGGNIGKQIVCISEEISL
T4 sequence (O75150 whole entry): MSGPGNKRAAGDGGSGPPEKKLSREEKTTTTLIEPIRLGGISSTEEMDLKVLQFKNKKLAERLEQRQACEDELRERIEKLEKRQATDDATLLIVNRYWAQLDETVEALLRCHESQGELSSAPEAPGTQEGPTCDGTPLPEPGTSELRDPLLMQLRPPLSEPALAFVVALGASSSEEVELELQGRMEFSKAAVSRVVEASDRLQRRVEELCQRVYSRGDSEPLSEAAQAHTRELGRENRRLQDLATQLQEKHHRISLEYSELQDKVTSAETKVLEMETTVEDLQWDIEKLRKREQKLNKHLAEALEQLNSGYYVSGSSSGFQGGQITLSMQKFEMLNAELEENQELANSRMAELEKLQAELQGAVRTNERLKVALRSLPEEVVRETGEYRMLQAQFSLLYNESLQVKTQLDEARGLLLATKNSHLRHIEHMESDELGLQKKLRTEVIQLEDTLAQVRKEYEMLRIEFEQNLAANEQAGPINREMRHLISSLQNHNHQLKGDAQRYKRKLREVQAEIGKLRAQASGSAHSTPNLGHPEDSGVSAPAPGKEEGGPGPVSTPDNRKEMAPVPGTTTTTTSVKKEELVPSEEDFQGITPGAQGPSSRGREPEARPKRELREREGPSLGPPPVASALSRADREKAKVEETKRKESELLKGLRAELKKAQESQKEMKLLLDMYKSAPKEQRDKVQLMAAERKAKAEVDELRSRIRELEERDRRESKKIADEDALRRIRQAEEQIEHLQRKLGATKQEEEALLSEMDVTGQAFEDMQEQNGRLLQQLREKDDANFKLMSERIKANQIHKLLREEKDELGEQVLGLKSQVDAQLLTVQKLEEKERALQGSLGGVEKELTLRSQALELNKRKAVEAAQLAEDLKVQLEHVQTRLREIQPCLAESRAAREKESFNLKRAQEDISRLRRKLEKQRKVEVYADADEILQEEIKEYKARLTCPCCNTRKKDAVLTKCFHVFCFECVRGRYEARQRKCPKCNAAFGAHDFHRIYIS
T2 sequence (Q96AE4 whole entry): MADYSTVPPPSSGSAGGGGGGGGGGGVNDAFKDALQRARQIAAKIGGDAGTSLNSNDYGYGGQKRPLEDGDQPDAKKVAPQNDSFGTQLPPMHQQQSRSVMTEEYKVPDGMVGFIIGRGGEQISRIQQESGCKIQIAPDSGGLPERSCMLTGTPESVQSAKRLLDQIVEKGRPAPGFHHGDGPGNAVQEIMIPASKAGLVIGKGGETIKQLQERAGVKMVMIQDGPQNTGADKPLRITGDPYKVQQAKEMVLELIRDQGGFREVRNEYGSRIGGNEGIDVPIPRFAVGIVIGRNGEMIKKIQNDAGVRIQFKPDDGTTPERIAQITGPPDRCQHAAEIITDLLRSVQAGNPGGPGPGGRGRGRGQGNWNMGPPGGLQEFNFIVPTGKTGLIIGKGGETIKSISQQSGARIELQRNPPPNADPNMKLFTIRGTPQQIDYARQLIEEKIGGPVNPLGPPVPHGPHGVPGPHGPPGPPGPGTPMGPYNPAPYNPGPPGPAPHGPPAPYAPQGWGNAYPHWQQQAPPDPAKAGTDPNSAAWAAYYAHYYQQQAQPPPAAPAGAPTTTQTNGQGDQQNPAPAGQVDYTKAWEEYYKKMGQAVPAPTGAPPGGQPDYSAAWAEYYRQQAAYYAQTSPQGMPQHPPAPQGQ
T5 sequence (P16930 whole entry): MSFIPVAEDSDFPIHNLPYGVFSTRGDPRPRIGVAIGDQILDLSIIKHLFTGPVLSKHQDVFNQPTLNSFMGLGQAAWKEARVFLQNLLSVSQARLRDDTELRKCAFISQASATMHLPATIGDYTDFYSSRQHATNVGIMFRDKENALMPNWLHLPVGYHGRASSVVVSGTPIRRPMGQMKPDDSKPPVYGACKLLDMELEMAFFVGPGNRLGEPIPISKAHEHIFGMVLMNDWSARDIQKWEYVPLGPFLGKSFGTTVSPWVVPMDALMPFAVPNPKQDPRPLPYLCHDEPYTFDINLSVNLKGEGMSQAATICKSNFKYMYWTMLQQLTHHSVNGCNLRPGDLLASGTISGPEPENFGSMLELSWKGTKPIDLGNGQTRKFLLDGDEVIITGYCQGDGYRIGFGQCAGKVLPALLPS

O=C(c1ccc(S(=O)(=O)n2cncn2)cc1)N1CCC(c2ccccc2)CC1 [HHS-0701, (4-((1H-1,2,4-triazol-1-yl)sulfonyl)phenyl)(4-phenylpiperidin-1-yl)methanone]
inhibition of PTGR2 biochemical activity [1]: concentration-dependent inhibition of PTGR2 activity
liganded tyrosine site 619 [2]: HHS0701.Y (tyrosine sites that showed >80% reductions (SR >5) in probe labeling in cells treated with compounds (liganded sites))

O=C(NCC1CC1)c1ccc(S(=O)(=O)n2cncn2)cc1 [HHS-0201, 4-((1H-1,2,4-triazol-1-yl)sulfonyl)-N-(cyclopropylmethyl)benzamide]
liganded tyrosine site 103 [3]: HHS0201.Y|HHS0301.Y|HHS0401.Y|HHS0701.Y (tyrosine sites that showed >80% reductions (SR >5) in probe labeling in cells treated with compounds (liganded sites))
liganded tyrosine site 244 [4]: HHS0201.Y (tyrosine sites that showed >80% reductions (SR >5) in probe labeling in cells treated with compounds (liganded sites))
liganded tyrosine site 247 [4]: HHS0201.Y (tyrosine sites that showed >80% reductions (SR >5) in probe labeling in cells treated with compounds (liganded sites))
liganded tyrosine site 283 [4]: HHS0201.Y (tyrosine sites that showed >80% reductions (SR >5) in probe labeling in cells treated with compounds (liganded sites))

O=C(NC1CC1)c1ccc(S(=O)(=O)n2cncn2)cc1 [HHS-0101, 4-((1H-1,2,4-triazol-1-yl)sulfonyl)-N-cyclopropylbenzamide]
inhibition of PTGR2 biochemical activity [1]: No inhibitory activity
liganded tyrosine site 928 [5]: HHS0101.Y (tyrosine sites that showed >80% reductions (SR >5) in probe labeling in cells treated with compounds (liganded sites))
liganded tyrosine site 438 [2]: HHS0101.Y (tyrosine sites that showed >80% reductions (SR >5) in probe labeling in cells treated with compounds (liganded sites))
liganded tyrosine site 244 ([6]; 25 μM 2 h, live DM93 cells): HHS0101.Y|HHS0201.Y|HHS0301.Y|HHS0401.Y|HHS0701.Y (tyrosine sites that showed >80% reductions (SR >5) in probe labeling in cells treated with compounds (liganded sites))
liganded tyrosine site 262 [4]: HHS0101.Y (tyrosine sites that showed >80% reductions (SR >5) in probe labeling in cells treated with compounds (liganded sites))

O=C(NC1CCCCC1)c1ccc(S(=O)(=O)n2cncn2)cc1 [HHS-0301, 4-((1H-1,2,4-triazol-1-yl)sulfonyl)-N-cyclohexylbenzamide]
liganded tyrosine site 258 [5]: HHS0301.Y (tyrosine sites that showed >80% reductions (SR >5) in probe labeling in cells treated with compounds (liganded sites))
liganded tyrosine site 81 [3]: HHS0301.Y (tyrosine sites that showed >80% reductions (SR >5) in probe labeling in cells treated with compounds (liganded sites))
liganded tyrosine site 104 [3]: HHS0301.Y|HHS0701.Y (tyrosine sites that showed >80% reductions (SR >5) in probe labeling in cells treated with compounds (liganded sites))

O=C(NCc1ccccc1)c1ccc(S(=O)(=O)n2cncn2)cc1 [HHS-0401, 4-((1H-1,2,4-triazol-1-yl)sulfonyl)-N-benzylbenzamide]
FAH Y244 site liganded ([6]; live DM93 cells treated with ligand): > 90%

From patent publication US20240210412A1, “SULFONYL-TRIAZOLE COMPOUNDS USEFUL AS LIGANDS AND INHIBITORS OF PROSTAGLANDIN REDUCTASE 2” (University of Virginia Patent Foundation, priority 2021, published 2024)
